Patent US20120220554A1, “Combretastatins for Prevention of Posterior Capsule Opacification” (OXIGENE, INC., priority 2010, published 2012)

What was measured:
Phosphorylated JNK = Phosphorylated JNK level; format: cell-based, bovine; details: CA4P treatment (data not shown)
Experimental: Phospho-Erk ½ levels were elevated immediately after the end of CA4P exposure in both control and treated cells and decreased 1 h after the end of CA4P exposure in both control and treated cells (FIG. 7). […] Therefore, it could be hypothesized that, in primary cells, a general stress response due to dissection will mask CA4P's effect on Erk phosphorylation. Phosphorylated p38 and JNK levels were not affected by CA4P treatment (data not shown).

[1] = tested on: Primary bovine lens epithelial cells; experiment: Primary bovine lens epithelial cells on the lens capsule, serum-free, continuous exposure: cell number and morphology; format: cell-based
Experimental: Primary bovine lens epithelial cells were cultured in serum-free conditions, survival factors being released from the lens capsule. Paclitaxel or combretastatin A-4 phosphate was added to the culture to a final concentration of 10 nM, 100 nM or 10 μM. Cell number was determined for each capsule at 48 h and 96 h after addition of the test agent. Two capsules were taken per treatment and cell numbers averaged after being expressed as a percentage of 48 h value. This indicates the increase/decrease in cell number within a 48 h time period (i.e. from 48 h to 96 h), normalized as a percentage. Independent T-test P value between CA4P control and 10 μM is 0.0002.
By light microscopy, CA4P has a dramatic effect upon cell morphology, retaining the cobblestone characteristic of the lens epithelium, when in the control cultures the lens cells have begun to trans-differentiate actinsm/desmin positive cells and migrate off the capsule. Pictures were taken from live primary bovine cells on the lens capsule with FujiFinepix (FIG. 3).

BIE cells = experiment: MTT-based viable cell number assay in BIE cells; parameters: species or system bovine; details: single 30 min treatment with 1 μM CA4P; over 72 h following treatment (FIG. 6)
Experimental: BMI-immortalized bovine lens epithelial cells (BIE cell line, produced in Roy Quinlan's Laboratory, University of Durham, UK), were seeded onto 12-well tissue culture plates in 10% fetal calf serum (FCS)-supplemented tissue culture medium (Sigma-Aldrich, UK) and kept at 37° C., 5% CO2 overnight. […] Viable cell number was assayed immediately and at 24 h, 48 h and 72 h after the end of exposure, using an MTT-based colorimetric assay (CellTiter95® Aqueous non-radioactive cell proliferation assay, Promega, UK), according to manufacturer's instructions. Briefly, the original cell culture medium was discarded from all wells and replaced by 500 µL of fresh medium, to which was added 100 µL of kit reagent. The wells were then returned to 37° C., 5% CO2 for 2 h 30 in the dark, after which […] were transferred from each well into a 96-well plate, which was read at 492 nm absorbance on an Anthos Lucy I (Anthos Labtech Instruments, Germany). The absorbance values were converted to cell numbers using standard curves specific to lens epithelial cells (determined in Roy Quinlan's laboratory, University of Durham, UK), and the viable cell numbers obtained were averaged with standard deviation. Significant differences in the values obtained between control and treated cells at different timepoints were assessed using an independent, two-tailed t-test.

## COc1ccc(/C=C\c2cc(OC)c(OC)c(OC)c2)cc1OP(=O)(O)O [CA4P, combretastatin A-4 phosphate]
Phosphorylated JNK
  Phosphorylated JNK levels: not affected
[1]; 10 nM, 100 nM or 10 μM, cell number at 48 h and 96 h, over a 96 hour exposure (FIG. 1, FIG. 2)
  decline in cell number, compared with paclitaxel: more effective than paclitaxel at inducing a decline in cell number
[1]; CA4P 10 μM, live primary bovine cells on the lens capsule, 48 and 96 h (FIG. 3)
  cell morphology by light microscopy: show only epithelial sheets with the typical cobblestone appearance of the lens epithelium
BIE cells
  number of BIE cells (viable cell number, MTT): steady reduction in the number of BIE cells
